One experiment deals with T1, uPAR (Homo sapiens, UniProt Q03405).
T1 construct: human uPAR (suPAR, amino acids 1-283) was expressed in stably transfected Drosophila S2 cells; made in house; host or cells: Drosophila S2 cells
Kind of experiment: Fluorescence polarization assay, displacement of AE147-FAM peptide from uPAR. Type of experiment: binding. The method, then:
Fluorescence Polarization Assay. The fluorescence polarization assay used fluorescent AE147-FAM peptide. uPAR was titrated against the fluorescent AE147-FAM peptide and data were fit to a sigmoidal dose-dependent curve as the FP value increases to determine the Kd of binding using Sigmaplot (Systat Software Inc., CA). Inhibitor screens were carried out in triplicates using 500 nM uPAR, 100 nM AE147-FAM, and inhibitor concentrations ranging from 0.78 μM to 100 μM in 50 μL volumes in black BD Falcon 384-well microplate. […] Polarized fluorescence intensities were measured immediately following addition of inhibitors to the protein-peptide mix at room temperature on an EnVision® Multilabel Plate Readers (PerkinElmer) with excitation and emission wavelengths of 485 nm and 530 nm, respectively.
Cloning, Expression and Purification of uPAR. uPAR was successfully cloned, expressed and purified. From 1 L of culture, nearly 12 mg of protein was expressed, which will be sufficient to conduct the experiments disclosed herein. Briefly, a truncated, soluble form of human uPAR (suPAR, amino acids 1-283) was expressed in stably transfected Drosophila S2 cells using the Drosophila Expression System (Invitrogen). suPAR was obtained by a two-step purification process. The conditioned culture medium was filtered (0.45 μm) and loaded onto a DEAE Sephadex column equilibrated with 20 mM Tris (pH 7.4). The protein was eluted with a gradient of 0-1 M NaCl in 20 mM Tris (pH 7.4). suPAR containing fractions were then pooled, concentrated, and filtered prior to RP-HPLC using a semi-preparative (10×25 cm) C8 column. A 1 mL aliquot of the concentrated protein was loaded onto the column at initial gradient conditions of 95% eluent A and 5% eluent B, where eluent A was 0.1% TFA/100% H2O and eluent B was 70:30 acetonitrile/[…]. The protein elutes using a gradient of 5% eluent A to 95% eluent B over 46 minutes at a flow rate of 4 mL/min. Under these conditions, the protein eluted as a single sharp peak (tR=29 min). […] Surface plasmon resonance confirmed that the purified uPAR was capable of binding to uPA. The identity of the 60 kDa band was established by immunoblot (not shown).
The design of a fluorescent probe was guided by the three-dimensional structure of uPAR in complex with peptide AE147.^27 As this peptide binds at the same site that is occupied by the growth factor-like domain of uPA, it provides the basis for the development of a competition assay to assess binding to this site. Flurescein was introduced to the N-terminus of AE147.
All 210 compounds were screened at initial concentration of 50 μM for displacement of AE147-FAM peptide. Eleven compounds gave polarization readings that were five times that of the standard deviation of the control peptide (FIG. 1B). Secondary concentration-dependent study for these eleven compounds was performed.
The resulting inhibition curves were used to determine an inhibition constant, Ki, for each.
In general terms: Polarisation of emitted light reports the rotation of a fluorescent probe.

Another experiment relates to MDA-MB-231 cells. Kind of experiment: Invasion assay (Boyden chamber, Matrigel). The experiment is classed as cell-based, human. Particulars: Homo sapiens. The method, then: Invasion and Migration Assays. These assays were performed using BD BioCoat Matrigel Invasion Chamber (Cat. 354480, BD Biosciences, Bedford, Mass.). The undersurface of the inserts was coated with 30 μg/mL of fibronectin (Sigma, F2006) in PBS at 4° C. overnight. The inserts were washed with PBS once. Then, 0.5 mL of serum-free medium was separately added to the upper and lower chambers to equilibrate the Matrigel invasion chambers at 37° C., 5% CO2 for 2 hours. After starvated with serumfree DMEM or 4 hours, subconfluent MDA-MB-231 cells were trypsinized and resuspended in 0.1% FBS DMEM. 5×10^4 cells in 500 μL of 0.1% FBS DMEM containing various compounds or 1.0% DMSO (as control) were added to the upper chambers. 500 μL of 10% FBS DMEM containing the same concentration of the same compound or DMSO were added to the lower chambers. We incubated the invasion chambers for 3 hours at 37° C., 5% CO2. Non-invaded cells were removed from the upper chamber with a cotton swab. The invaded cells were fixed with 100% methanol and then stained with Hematoxylin Stain Harris Modified Method (Fisher, SH30-500D). The filters were washed with water 3 times. Filters were air dried and the invaded cells were counted in ten randomly selected microscopic fields (×200 magnification). The experiment was performed in triplicate per group and shown by mean±SE.
Whether the two active compounds affected invasion, adhesion and migration in cell culture in a concentration-dependent study was tested (FIGS. 2A, 2B). For invasion, the Transwell (or Boyden) chamber assay was used.^28 The assay uses a chamber with two compartments that are separated by a microporous membrane known as Matrigel consisting of components of the ECM such as collagen, laminin and fibronectin.^28
Invasive tumor cells degrade the Matrigel and migrate through the membrane to the lower compartment. […] FIGS. 2A and 2B show the effect of representative presently disclosed compounds on MDA-MB-231 metastasis. Percent inhibition of invasion, migration, and adhesion of MDA-MB-231 by compounds that bind to uPAR.

In the next experiment the test system is phospho-p44/42 MAPK. Put plainly: Immunoblot of MAPK phosphorylation in MDA-MB-231 cells. Type of experiment: cell-based, human. To be noted: 100 μM, 30 minutes. As to the method: Immunoblots. MDA-MB-231 cells treated with 100 μM of compound(s)/1% DMSO for 30 min. Harvested cell lysates in RIPA buffer supplemented with protease inhibitors and phosphatase inhibitors. Under non-reducing condition equal amounts of protein were loaded per lane and separated in 4-12% NuPAGE gel (Invitrogen) at 200 V for 60 minutes, then transferred to Nitrocellulose membrane at 30 V for one hour using XCell II blot module. […] Secondary antibody: goat anti-rabbit IgG HRP 1:3000 in 5% non-fat milk-TBST at room for 1 hour. The protein bands were visualized using Immobilon Western Chemiluminescent HRP Substrate (WBKLS0100, Millipore, Billerica, Mass.). Fibronectin (Sigma, F2006) […] coated in 6-well plates overnight. MDA-MB-231serum-starved for 4 hours and then seeded in FN coated 6-well plates and treated with 5,10, 20 and 40 μM compound(s)/1% DMSO for 30 min, cells were lysated in RIPA buffer supplemented with protease inhibitors and phosphatase inhibitors. Then IB with phospho-p44/42 MAPK (Thr202/Tyr204), p44/42 MAPK; phospho-FAK (Tyr397), FAK; phospho-Src family (Tyr416), Src, respectively.
A concentration-dependent study was subsequently carried out for IPR-1 (FIG. 6B). […] The effect of the compound also was studied in two other signaling pathways including FAK and Src. FAK is constitutively associated with β-integrin subunits of integrin receptors.
On the technique in general: Immunoblotting shows a protein as a band on a membrane.

Molecules are shown by their SMILES. Read-outs that look alike come from different tables or passages of the source.

T1 sequence (Q03405 23-305): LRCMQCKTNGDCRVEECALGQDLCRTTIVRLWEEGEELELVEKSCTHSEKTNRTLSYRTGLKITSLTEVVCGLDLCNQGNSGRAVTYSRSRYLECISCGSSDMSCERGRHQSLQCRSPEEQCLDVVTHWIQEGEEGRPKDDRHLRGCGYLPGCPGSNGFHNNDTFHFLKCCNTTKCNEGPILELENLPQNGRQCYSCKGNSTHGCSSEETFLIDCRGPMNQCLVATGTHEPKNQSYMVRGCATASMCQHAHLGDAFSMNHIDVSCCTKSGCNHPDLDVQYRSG

`CN(C)c1ccc(CNCCC(Cc2ccccc2)c2ccc3c(c2)OCO3)cc1` (racemic) [IPR-9, 4-(((3-(benzo[d][1,3]dioxol-5-yl)-4-phenylbutyl)amino)methyl)-N,Ndimethylaniline]: the IC50 (commonly the concentration at which inhibition is half-maximal) at uPAR (Table 1, assay not stated) is 24.4 µM; with MDA-MB-231 cells it was 30 µM. In addition, the Ki (in general, a dissociation constant, usually derived from enzyme kinetics or from competition with a known ligand) at uPAR (Table 1, assay not stated, read-out: Ki) was 7.4 µM. Also, the “effect on MAPK phosphorylation” value in the experiment on phospho-p44/42 MAPK is on record as “significant impairment”.
`Cc1cc(C)cc(NC(=O)c2cnn(-c3ccc(C(C)C)cc3)c2C2CCNCC2)c1` [IPR-69, N-(3,5-dimethylphenyl)-1-(4-isopropylphenyl)-5-(piperidin-4-yl)-1H-pyrazole-4-carboxamide]: the Ki on uPAR (from concentration-dependent inhibition curves, read-out: inhibition constant, Ki) was found to be 30 µM. In the experiment with MDA-MB-231 cells, this molecule gave a half-inhibitory concentration (IC50) of 30 µM. Besides, the “effect on MAPK phosphorylation” value in the experiment on phospho-p44/42 MAPK is “abrogated phosphorylation, but the effects were weaker than IPR-9”.

These data come from US9745288B2, “Compounds and methods for treating cancer by inhibiting the urokinase receptor” (Indiana University Research and Technology Corporation, priority 2011, dated 2017).
